Data as given in ChEMBL document CHEMBL4152365, “Discovery of DS-6930, a potent selective PPARγ modulator. Part I: Lead identification” (Bioorg Med Chem, 2018).
Converted amounts (≈) assume the structure as drawn. The source made the active and inactive calls. The calls are words filed in the database; no cut-off is given here.

How the values were obtained:
[1] = Metabolic stability in rat liver microsomes after 0.5 hrs; format: ADME, microsome; conditions: read-out: Stability
[2] = Plasma concentration in hyperglycemic KK/Ta mouse at 30 mg/kg/day, po administered through diet for 3 days measured on day 3 post last dose; format: ADME, organism-based
[3] = tested on: Mus musculus; test: Toxicity in hyperglycemic KK/Ta mouse assessed as body weight gain at 30 mg/kg/day, po administered through diet for 3 days relative to control; format: organism-based; conditions: in vivo, 72 h
[4] = tested on: Mus musculus; test: Glucose-lowering effect in hyperglycemic KK/Ta mouse assessed as reduction in plasma glucose level at 30 mg/kg/day, po administered through diet for 3 days relative to control; format: functional; design: scale not given: the % may be the effect or the level left
[5] = target: T1, Peroxisome proliferator-activated receptor delta (Homo sapiens) (UniProt Q03181); test: Agonist activity at PPARdelta (unknown origin) at 10 uM
T1 sequence (whole entry): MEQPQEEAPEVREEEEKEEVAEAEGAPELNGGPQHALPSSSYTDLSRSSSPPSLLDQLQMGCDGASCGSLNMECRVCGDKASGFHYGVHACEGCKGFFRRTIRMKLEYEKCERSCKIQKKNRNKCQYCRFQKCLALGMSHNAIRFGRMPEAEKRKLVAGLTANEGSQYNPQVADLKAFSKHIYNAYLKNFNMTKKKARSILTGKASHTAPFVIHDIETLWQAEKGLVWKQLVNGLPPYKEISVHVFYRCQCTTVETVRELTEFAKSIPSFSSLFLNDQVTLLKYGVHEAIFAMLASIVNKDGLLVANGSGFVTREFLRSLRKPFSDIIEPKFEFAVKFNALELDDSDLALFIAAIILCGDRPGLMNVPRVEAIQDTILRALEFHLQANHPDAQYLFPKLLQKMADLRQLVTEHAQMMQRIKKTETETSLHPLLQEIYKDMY

[6] = target: T2, Peroxisome proliferator-activated receptor gamma (Homo sapiens, UniProt P37231); test: Agonist activity at recombinant human GAL4-DBD fused PPARgamma LBD expressed in COS7 cells after 24 hrs by luciferase reporter gene assay; format: cell-based
T2 sequence (P37231 whole entry): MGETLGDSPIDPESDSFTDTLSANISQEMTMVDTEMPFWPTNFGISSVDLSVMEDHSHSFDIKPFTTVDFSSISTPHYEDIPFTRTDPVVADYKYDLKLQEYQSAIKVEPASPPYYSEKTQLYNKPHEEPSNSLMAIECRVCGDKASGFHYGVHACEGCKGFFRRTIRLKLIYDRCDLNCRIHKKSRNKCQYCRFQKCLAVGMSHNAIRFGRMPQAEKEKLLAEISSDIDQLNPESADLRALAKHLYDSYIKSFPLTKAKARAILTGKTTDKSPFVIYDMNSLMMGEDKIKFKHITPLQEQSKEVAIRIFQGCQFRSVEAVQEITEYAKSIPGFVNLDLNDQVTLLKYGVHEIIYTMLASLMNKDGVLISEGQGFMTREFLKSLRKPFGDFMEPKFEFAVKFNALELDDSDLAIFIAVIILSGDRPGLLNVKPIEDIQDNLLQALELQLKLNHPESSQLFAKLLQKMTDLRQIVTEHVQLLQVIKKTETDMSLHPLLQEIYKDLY

[7] = target: T3, Peroxisome proliferator-activated receptor gamma (Homo sapiens) (UniProt P37231); test: Agonist activity at recombinant human GAL4-DBD fused PPARgamma LBD expressed in COS7 cells at 10 uM after 24 hrs by luciferase reporter gene assay relative to rosiglitazone; format: cell-based
T3 sequence (whole entry): T2 sequence (P37231 whole entry)

[8] = target: T4, Peroxisome proliferator-activated receptor alpha (Homo sapiens, UniProt Q07869); test: Agonist activity at recombinant human GAL4-DBD fused PPARalpha LBD expressed in COS7 cells after 24 hrs by luciferase reporter gene assay; format: cell-based
T4 sequence (Q07869 whole entry): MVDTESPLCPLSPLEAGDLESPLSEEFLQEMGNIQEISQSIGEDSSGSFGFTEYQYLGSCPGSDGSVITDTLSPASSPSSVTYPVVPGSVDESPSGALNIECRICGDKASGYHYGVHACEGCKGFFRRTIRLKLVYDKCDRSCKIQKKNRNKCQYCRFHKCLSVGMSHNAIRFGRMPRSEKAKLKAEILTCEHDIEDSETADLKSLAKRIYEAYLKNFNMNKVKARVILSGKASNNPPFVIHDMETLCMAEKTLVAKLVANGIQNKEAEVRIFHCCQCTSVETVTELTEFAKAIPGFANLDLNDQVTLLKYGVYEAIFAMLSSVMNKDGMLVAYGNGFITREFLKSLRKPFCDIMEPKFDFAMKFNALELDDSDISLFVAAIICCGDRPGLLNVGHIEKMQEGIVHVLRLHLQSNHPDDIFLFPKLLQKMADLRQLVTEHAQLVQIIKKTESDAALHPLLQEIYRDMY

[9] = target: T5, Peroxisome proliferator-activated receptor alpha (Homo sapiens) (UniProt Q07869); test: Agonist activity at recombinant human GAL4-DBD fused PPARalpha LBD expressed in COS7 cells at 10 uM after 24 hrs by luciferase reporter gene assay relative to 2-(4-tert-Butylphenoxy)-3-[4-[2-[(4-pyridin-2-ylbenzoyl)amino]ethoxy]; format: cell-based
T5 sequence (whole entry): T4 sequence (Q07869 whole entry)

[10] = 1-octanol/PBS distribution co-efficient, log D of the compound at […] at pH 7.4 after 30 mins by HPLC-MS/MS analysis; format: physicochemical
[11] = Aqueous thermodynamic solubility of the compound in pH 6.8 solution up to 4 hrs by HPLC-UV analysis; format: physicochemical; conditions: read-out: Therm_solubility
[12] = Metabolic stability in human liver microsomes after 0.5 hrs; format: ADME, microsome; conditions: read-out: Stability
[13] = tested on: Rattus norvegicus; test: Glucose-lowering effect in Zucker diabetic fatty rat assessed as reduction in plasma glucose level at 3 mg/kg, po administered once daily for 14 days measured on day 14 post last dose relative to control; format: functional; design: scale not given: the % may be the effect or the level left
[14] = tested on: Rattus norvegicus; test: Toxicity in Zucker diabetic fatty rat assessed as body weight gain at 3 mg/kg, po administered once daily for 14 days relative to control; format: organism-based; conditions: in vivo, 336 h
[15] = Cmax in Zucker diabetic fatty rat at 3 mg/kg, po dosed once daily for 14 days and followed by additional administeration on day 15; format: ADME, organism-based; design: dose 3 mg/kg, route oral; conditions: in vivo
[16] = Tmax in Zucker diabetic fatty rat at 3 mg/kg, po dosed once daily for 14 days and followed by additional administeration on day 15; format: ADME, organism-based; conditions: in vivo
[17] = AUC (0 to 24 hrs) in Zucker diabetic fatty rat at 3 mg/kg, po dosed once daily for 14 days and followed by additional administeration on day 15; format: ADME, organism-based; design: dose 3 mg/kg, time < 24 hr, route oral; conditions: in vivo
[18] = Metabolic stability in cynomolgus monkey liver microsomes after 0.5 hrs; format: ADME, Macaca fascicularis, microsome; conditions: read-out: Stability
[19] = Cmax in cynomolgus monkey at 3 mg/kg, po by LC-MS/MS analysis; format: ADME, organism-based, Macaca fascicularis; design: dose 3 mg/kg, route oral; conditions: in vivo
[20] = Tmax in cynomolgus monkey at 3 mg/kg, po by LC-MS/MS analysis; format: ADME, organism-based, Macaca fascicularis; conditions: in vivo
[21] = Half life in cynomolgus monkey at 3 mg/kg, po by LC-MS/MS analysis; format: ADME, organism-based, Macaca fascicularis; conditions: in vivo
[22] = AUClast in cynomolgus monkey at 3 mg/kg, po by LC-MS/MS analysis; format: ADME, organism-based, Macaca fascicularis; design: dose 3 mg/kg, route oral, time 0 - last; conditions: in vivo
[23] = Oral bioavailability in cynomolgus monkey at 3 mg/kg by LC-MS/MS analysis; format: ADME, organism-based, Macaca fascicularis; conditions: in vivo
[24] = Clearance in cynomolgus monkey at 1 mg/kg, iv by LC-MS/MS analysis; format: ADME, organism-based, Macaca fascicularis; conditions: in vivo
[25] = Volume of distribution at steady state in cynomolgus monkey at 1 mg/kg, iv by LC-MS/MS analysis; format: ADME, organism-based, Macaca fascicularis; conditions: in vivo, read-out: Vdss

Work on Cc1ccc(Oc2ccc3nc(COc4cccc(C(=O)O)c4)n(C)c3c2)cc1 yielded a remaining at 0.5 h [1] of 100%, a concentration at 72 h [2] of 510 ng/mL and an Activity [3] of 4.8%. The Activity [4] was 48.4%, the Activity [5] was “inactive” and the EC50 [6] was 40 nM. The Emax [7] was 73%, the EC50 [8] was > 10000 nM and the Emax [9] was 28%. It also gave a logD at 0.5 h [10] of 2.4, a solubility thermodynamic at 4 h [11] of 7.9 µg/mL (≈ 20.3 µM) and a remaining at 0.5 h [12] of 91%. For the same molecule, the Activity [13] was 58.6%, the Activity [14] was 13% and the Cmax [15] was 1110 ng/mL. For the same molecule, the Tmax [16] was 2 h, the AUC at 24 h [17] was 7100 ng·h/mL and the remaining at 0.5 h [18] was 100%. The Cmax [19] was 1020 ng/mL, the Tmax [20] was 1 h and the half-life [21] was 10.4 h. The AUC(0-t) [22] was 4870 ng·h/mL, the bioavailability [23] was 34% and the clearance [24] was 3.58 mL/min/kg. For the same molecule, the Vd [25] was 0.56 L/kg.

Cc1ccc(Oc2ccc3nc(COc4cccc(C(=O)O)c4)n(C)c3c2)c(F)c1 gave a remaining at 0.5 h [1] of 98%, a concentration at 72 h [2] of 550 ng/mL and an Activity [3] of 2.5%. It also gave an Activity [4] of 53.4%, an EC50 [6] of 92 nM and an Emax [7] of 90%. The EC50 [8] was > 10000 nM, the Emax [9] was 16% and the logD at 0.5 h [10] was 2.3. For the same molecule, the solubility thermodynamic at 4 h [11] was 0.5 µg/mL (≈ 1.23 µM), the remaining at 0.5 h [12] was 92% and the Activity [13] was 61.7%. It also gave an Activity [14] of 8.5%, a Cmax [15] of 300 ng/mL and a Tmax [16] of 2.4 h. The AUC at 24 h [17] was 3160 ng·h/mL, the remaining at 0.5 h [18] was 100% and the Cmax [19] was 330 ng/mL. The Tmax [20] was 1.5 h, the half-life [21] was 16.1 h and the AUC(0-t) [22] was 2870 ng·h/mL. The bioavailability [23] was 24%, the clearance [24] was 4.16 mL/min/kg and the Vd [25] was 1.23 L/kg.
